The structures appear in SMILES notation.

This is an account of results in patent US11000530B2, “Methods and compositions for the treatment of ophthalmic conditions” (Murray & Poole Enterprises, Limited, priority 2017, dated 2021).

For data set [1] the following is noted: exposure to oxygen: oxygenation of diclofenac, degradation of ofloxacin into ofloxacin-N-oxide; cited from earlier work.
Data set [2] is described as follows: Sedimentation in liquid solutions. Format: physicochemical. To be noted: micronized, particulate form.

On to `O=C(O)Cc1ccccc1Nc1c(Cl)cccc1Cl` [Diclofenac], for which the “compatibility of diclofenac and ofloxacin” value in data set [1] is “generally incompatible”.

As for `CC(=O)OCC(=O)[C@@]1(O)CC[C@H]2[C@@H]3CCC4=CC(=O)C=C[C@]4(C)[C@H]3[C@@H](O)C[C@@]21C` [Prednisolone acetate], the “time to sedimentation in liquid solutions” value in data set [2] is recorded as “less than one minute”.
